Measured values: paper PMC10447287, “Optimisation of Pharmaceutical Cocrystal Dissolution Performance through a Synergistic Precipitation Inhibition” (Pharmaceutical Research, 2023)
Each block holds one molecule with its values, some of them ahead of it.

Legend:
[1] = Equilibrium solubility of FFA in DDW and PBS in the absence and presence of a predissolved polymer or a combination; format: physicochemical
Protocol: The FFA solubility was determined by suspending an excess amount of crystalline materials of FFA I in small vials with 20 mL of a selected dissolution medium (i.e., DDW or PBS pH 4.5) in the absence and presence of a predissolved single polymer and a combination. The detailed polymers and their corresponding concentrations were 0.2 mg/mL of PVP-VA, 1 mg/mL of PEG and 0.2 mg/mL of SLP, which were based on the previous study and the solubility curve obtained in the preliminary study in Figure S5 in the supporting materials. All of the suspensions were kept at 37 ± 0.5°C in a water bath with a shaking rate of 150 rpm for 24 h. Each of the supernatants was separated from excess solids in solution by centrifugation at 13,000 RPM for 1 min in an MSB 010.CX2.5 centrifuge (MSE Ltd., London, U.K.). Subsequently, the supernatant was diluted using ethanol, and the FFA concentration was determined using HPLC. The solid residues retrieved from the tests were dried for 24 h at ambient temperature and then analysed by PXRD. Each of the experiments was conducted in triplicate, and data were reported as an average concentration. Additionally, the FFA solubility in PBS pH 6.8 at 37 ± 0.5°C was also measured in triplicate. The solids were scanned by D2 phaser diffractometer (Bruker U.K. Limited, Coventry, UK) with […] radiation operating at voltage of 30 kV and current of 10 mA. The scanning angle ranged from 2°-40° of 2θ. The scanning time per step was 0.4 s. The scan step size was 0.02° of 2θ.

[2] = Particle size distribution of sieved powders; format: physicochemical; conditions: sieved particles < 250 μm
Protocol: All samples (i.e., FFA, FFA-NIC cocrystal and FFA-TP cocrystal) used in the dissolution tests were slightly ground by a mortar and pestle and sieved by a 60-mesh sieve (below 250 μm) to reduce the influence of particle size on the dissolution rates. The particle size distributions of the test samples were measured using a SYNC Analyzer (MICROTRAC Retsch GmbH, Hann, Germany). The particle size distributions (D10, D50, D90 and mean particle size) of the solid particles were compared. The data were analysed by the Microtrac FLEX software (12.0.0.1).

[3] = Dissolution tests of powders in DDW with predissolved polymer or combination (USP type II paddle); format: physicochemical; conditions: for solid residues after dissolution tests (PXRD): DDW in the absence or presence of predissolved polymers; for FFA concentration in solution after 4 h / FFA DPP (dissolution performance parameter): DDW; for FFA concentration in solution after 4 h: no polymer, powder dissolution; for FFA DPP (dissolution performance parameter): 0-4 h, reference same powder in DDW
Protocol: In vitro dissolution tests were performed with a USP type II paddle apparatus (DT 126 light, Erweka GmbH, Germany) at 37 ± 0.5°C with a paddle speed of 50 rpm in 400 mL of DDW in the absence and presence of a predissolved polymer (i.e., 0.2 mg/mL of PVP-VA, 1 mg/mL of PEG, 0.2 mg/mL of SLP) or a combination of two polymers (i.e., 0.2 mg/mL PVP-VA + 1 mg/mL PEG, […]).
71.7 mg of FFA-NIC cocrystal powders with the equivalent of 50 mg FFA I powders were used in each of the dissolution tests. Samples of 1 ± 0.1 mL were withdrawn from the dissolution vessel at the predefined time points of 5, 10, 15, 30, 60, 120, 180 and 240 min. The supernatant of each of the samples was separated from the excess solids by centrifugation at 13,000 RPM for 1 min in an MSE Micro Centaur. HPLC was used to determine the concentrations of FFA and NIC in solution. Solid residues obtained from the experiments were dried at room temperature and analysed by PXRD. All experiments were repeated in triplicate.
For comparison, the above dissolution tests were also repeated using 50 mg of pure FFA I powders and 82.0 mg of FFA-TP cocrystal powders.
DPP was used to evaluate the dissolution profile of the test powders in comparison to a reference system, which is defined as,4 DPP=AUCC(t)-AUCCR(t)/AUCCR(t)×100% where AUCC(t) is the area under the curve (AUC) of a dissolution profile C(t) , indicating the amount of drug dissolved is maintained over the period of the dissolution time from 0 to t, and AUCCR(t) is the AUC of a reference dissolution profile CR(t) .
The solids were scanned by D2 phaser diffractometer (Bruker U.K. Limited, Coventry, UK) with […] radiation operating at voltage of 30 kV and current of 10 mA. The scanning angle ranged from 2°-40° of 2θ. The scanning time per step was 0.4 s. The scan step size was 0.02° of 2θ.

[4] = Ionisation constants of flufenamic acid; format: physicochemical; conditions: at pH 4.5
[5] = design: method as in doi:10.1007/s10953-010-9642-6; conditions: cited from earlier work
[6] = predissolved PVP-VA (0.2 mg/mL)
[7] = predissolved SLP (0.2 mg/mL) + PVP-VA (0.2 mg/mL)

solubility at 24 h ([1]; DDW, 37 °C, aqueous with cosolvent or surfactant or cyclodextrin, thermodynamic from solid, DDW, predissolved PEG (1 mg/mL) + PVP-VA (0.2 mg/mL), 37°C): 20.9 ± 5.35 µg/mL | solubility at 24 h ([1]; DDW, 37 °C, aqueous with cosolvent or surfactant or cyclodextrin, thermodynamic from solid, DDW, predissolved SLP (0.2 mg/mL) + PVP-VA (0.2 mg/mL), 37°C): 119 ± 3.3 µg/mL | solubility at 24 h ([1]; DDW, 37 °C, aqueous with cosolvent or surfactant or cyclodextrin, thermodynamic from solid, predissolved PEG (1 mg/mL)): 17.8 ± 1.72 µg/mL | solubility at 24 h ([1]; DDW, 37 °C, aqueous with cosolvent or surfactant or cyclodextrin, thermodynamic from solid, predissolved PVP-VA (0.2 mg/mL)): 12 ± 1.4 µg/mL | solubility at 24 h ([1]; DDW, absence of polymer, 37°C): 10.1 ± 0.79 µg/mL | solubility at 24 h ([1]; DDW, predissolved SLP (0.2 mg/mL), 37°C): 111 ± 16.2 µg/mL | solubility at 24 h ([1]; PBS pH 4.5, 37 °C, pH 4.5, aqueous buffer, thermodynamic from solid, PBS pH 4.5, absence of polymer, 37°C): 18.3 ± 2.39 µg/mL | solubility at 24 h ([1]; PBS pH 4.5, 37 °C, pH 4.5, aqueous with cosolvent or surfactant or cyclodextrin, thermodynamic from solid, PBS pH 4.5, predissolved PEG (1 mg/mL) + PVP-VA (0.2 mg/mL), 37°C): 11.4 ± 0.22 µg/mL | solubility at 24 h ([1]; PBS pH 4.5, 37 °C, pH 4.5, aqueous with cosolvent or surfactant or cyclodextrin, thermodynamic from solid, PBS pH 4.5, predissolved PVP-VA (0.2 mg/mL), 37°C): 11 ± 1.32 µg/mL | solubility at 24 h ([1]; PBS pH 4.5, 37 °C, pH 4.5, aqueous with cosolvent or surfactant or cyclodextrin, thermodynamic from solid, PBS pH 4.5, predissolved SLP (0.2 mg/mL) + PVP-VA (0.2 mg/mL), 37°C): 41.1 ± 4.2 µg/mL | solubility at 24 h ([1]; PBS pH 4.5, 37 °C, pH 4.5, aqueous with cosolvent or surfactant or cyclodextrin, thermodynamic from solid, PBS pH 4.5, predissolved SLP (0.2 mg/mL), 37°C): 41.9 ± 2.5 µg/mL | solubility at 24 h ([1]; PBS pH 4.5, pH 4.5, PBS pH 4.5, predissolved PEG (1 mg/mL), 37°C): 9.01 ± 0.26 µg/mL | solubility ([1]; PBS pH 6.8, 37 °C, pH 6.8, aqueous buffer, thermodynamic from solid, PBS pH 6.8, absence of polymer, 37°C): 741.1 ± 6.27 µg/mL | solid form of residues after solubility tests (PXRD) ([1]; after 24 h in various media): remained the form I | D10 [2]: 5.19 μm | D50 [2]: 13.58 μm | D90 [2]: 84.86 μm | Mean particle size [2]: 31.71 μm | solid residues after dissolution tests (PXRD) [3]: no phase transformation | FFA concentration in solution after 4 h [3]: 4.99 µg/mL | FFA DPP (dissolution performance parameter) [3, 6]: -24% | FFA DPP (dissolution performance parameter) [3, 7]: 50% | FFA DPP (dissolution performance parameter) ([3]; predissolved SLP (0.2 mg/mL)): 30% | fraction in the neutral form [4]: more than 75%
Compound: O=C(O)c1ccccc1Nc1cccc(C(F)(F)F)c1 [FFA, Flufenamic acid]
isoelectric point pH [5]: 3.88 ± 0.03 | pKa1 (basic group) [5]: 2.92 ± 0.01 | pKa2 (acidic group) [5]: 4.84 ± 0.04

D10 [2]: 5.25 μm | D50 [2]: 12.32 μm | D90 [2]: 56.64 μm | Mean particle size [2]: 23.92 μm | solid residues after dissolution tests (PXRD) [3]: the same as the starting materials | FFA concentration in solution after 4 h [3]: 8.35 µg/mL | FFA DPP (dissolution performance parameter) ([3]; predissolved PEG (1 mg/mL) + PVP-VA (0.2 mg/mL)): 12% | FFA DPP (dissolution performance parameter) ([3]; predissolved PEG (1 mg/mL)): 24% | FFA DPP (dissolution performance parameter) [3, 6]: -17% | FFA DPP (dissolution performance parameter) [3, 7]: 23% | FFA DPP (dissolution performance parameter) ([3]; predissolved SLP (0.2 mg/mL)): 3%
Compound: Cn1c(=O)c2[nH]cnc2n(C)c1=O.O=C(O)c1ccccc1Nc1cccc(C(F)(F)F)c1 [FFA-TP cocrystal]
